According to patent publication US9708334B2, “Substituted 2,4,5,6-tetrahydropyrrolo[3,4-c]pyrazole and 4,5,6,7-tetrahydro-2H-pyrazolo[4,3-c]pyridine compounds as GlyT1 inhibitors” (DART NEUROSCIENCE (CAYMAN) LTD., priority 2014, dated 2017):

Molecular target: T1, GlyT1 (Homo sapiens, UniProt P48067)
T1 construct: expressed in transfected cells
T1 sequence (P48067 1-706): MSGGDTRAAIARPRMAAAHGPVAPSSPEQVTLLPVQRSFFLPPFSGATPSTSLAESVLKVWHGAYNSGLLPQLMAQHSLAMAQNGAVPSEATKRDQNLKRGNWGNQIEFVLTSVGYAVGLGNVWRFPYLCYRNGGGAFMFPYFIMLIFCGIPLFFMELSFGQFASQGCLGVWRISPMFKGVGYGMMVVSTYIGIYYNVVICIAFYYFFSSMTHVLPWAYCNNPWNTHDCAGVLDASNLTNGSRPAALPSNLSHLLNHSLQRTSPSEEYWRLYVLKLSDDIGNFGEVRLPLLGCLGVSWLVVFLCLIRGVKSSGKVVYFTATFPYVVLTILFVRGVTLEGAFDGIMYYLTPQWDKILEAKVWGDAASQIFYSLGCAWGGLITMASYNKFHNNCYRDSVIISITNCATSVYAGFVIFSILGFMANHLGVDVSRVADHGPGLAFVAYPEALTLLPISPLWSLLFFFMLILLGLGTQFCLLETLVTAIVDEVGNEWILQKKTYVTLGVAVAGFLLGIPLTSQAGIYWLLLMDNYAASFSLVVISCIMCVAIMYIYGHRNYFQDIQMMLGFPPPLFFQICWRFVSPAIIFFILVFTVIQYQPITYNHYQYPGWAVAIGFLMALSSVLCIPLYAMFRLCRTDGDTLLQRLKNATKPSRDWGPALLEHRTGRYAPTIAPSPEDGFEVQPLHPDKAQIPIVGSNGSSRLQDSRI
Test: Glycine Transporter 1 (GlyT1) uptake assay, scintillation proximity assay of [14C]-glycine uptake
Type: cell-based
Settings: SPA, four parameter logistic fit, read-out: GlyT1 (pIC50) (converted)
Method in brief: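 [14C]-glycine uptake read by scintillation proximity on a plate counter. IC50 from four-parameter logistic fit of dose-response data.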

| Compound | IC50 |
| --- | --- |
| CCS(=O)(=O)c1ccc(N2CCC(F)(F)CC2)c(C(=O)N2Cc3cn(-c4ccnc(C)c4)nc3C2)c1 [Example 111, 4-{5-[2-(4 4-Difluoropiperidin-1-yl)-5-(ethanesulfonyl)benzoyl]-2H 4H 5H 6H-pyrrolo[3,4-c]pyrazol-2-yl}-2-methylpyridine] | < 100 nM |
| CCS(=O)(=O)c1ccc(N2CCC(F)(F)CC2)c(C(=O)N2Cc3cn(-c4cncc(F)c4)nc3C2)c1 [Example 112] | < 100 nM |
| CCS(=O)(=O)c1ccc(O[C@@H](C)C(F)(F)F)c(C(=O)N2Cc3cn(-c4ccnc(C)c4)nc3C2)c1 [Example 113, 4-{5-[5-(Ethanesulfonyl)-2-{[(2S)-1 1 1-trifluoropropan-2-yl]oxy}benzoyl]-2H 4H 5H 6H-pyrrolo[3,4-c]pyrazol-2-yl}-2-methylpyridine] | < 100 nM |
| CCS(=O)(=O)c1ccc(O[C@@H](C)C(F)(F)F)c(C(=O)N2Cc3cn(-c4cncc(F)c4)nc3C2)c1 [Example 114, 3-{5-[5-(Ethanesulfonyl)-2-{[(2S)-1 1 1-trifluoropropan-2-yl]oxy}benzoyl]-2H 4H 5H 6H-pyrrolo[3,4-c]pyrazol-2-yl}-5-fluoropyridine] | < 100 nM |
| CS(=O)(=O)c1ccc(N2CCCCC2)c(C(=O)N2Cc3cn(-c4ccc(F)cn4)nc3C2)c1 [Example 115, 5-Fluoro-2-{5-[5-methanesulfonyl-2-(piperidin-1-yl)benzoyl]-2H 4H 5H 6H-pyrrolo[3,4-c]pyrazol-2-yl}pyridine] | < 100 nM |
| CS(=O)(=O)c1ccc(N2CCCCC2)c(C(=O)N2Cc3cn(-c4cncc(F)c4)nc3C2)c1 [Example 116, 3-Fluoro-5-{5-[5-methanesulfonyl-2-(piperidin-1-yl)benzoyl]-2H 4H 5H 6H-pyrrolo[3,4-c]pyrazol-2-yl}pyridine] | < 100 nM |
| Cc1cc(-n2cc3c(n2)CN(C(=O)c2cc(S(C)(=O)=O)ccc2N2CCCCC2)C3)ccn1 [Example 117, 4-{5-[5-Methanesulfonyl-2-(piperidin-1-yl)benzoyl]-2H 4H 5H 6H-pyrrolo[3,4-c]pyrazol-2-yl}-2-methylpyridine] | < 100 nM |
| CS(=O)(=O)c1ccc(OCC2CC2)c(C(=O)N2Cc3cn(-c4ccccc4)nc3C2)c1 [Example 118, 5-[2-(Cyclopropylmethoxy)-5-methanesulfonylbenzoyl]-2-phenyl-2H 4H 5H 6H-pyrrolo[3,4-c]pyrazole] | 100 to 1000 nM |
| CS(=O)(=O)c1ccc(OCC2CC2)c(C(=O)N2Cc3cn(-c4ccccc4F)nc3C2)c1 [Example 119, 5-[2-(Cyclopropylmethoxy)-5-methanesulfonylbenzoyl]-2-(2-fluorophenyl)-2H 4H 5H 6H-pyrrolo[3,4-c]pyrazole] | < 100 nM |
| CS(=O)(=O)c1ccc(N2CCC(F)(F)CC2)c(C(=O)N2Cc3cn(-c4ccc(F)cn4)nc3C2)c1 [Example 120, 2-{5-[2-(4 4-Difluoropiperidin-1-yl)-5-methanesulfonylbenzoyl]-2H 4H 5H 6H-pyrrolo[3,4-c]pyrazol-2-yl}-5-fluoropyridine] | < 100 nM |
| C[C@H](Oc1ccc(S(C)(=O)=O)cc1C(=O)N1Cc2cn(-c3cc(F)ccc3F)nc2C1)C(F)(F)F [Example 121, 2-(2 5-Difluorophenyl)-5-(5-methanesulfonyl-2-{[(2S)-1 1 1-trifluoropropan-2-yl]oxy}benzoyl)-2H 4H 5H 6H-pyrrolo[3,4-c]pyrazole] | < 100 nM |
| Cc1ccc(F)c(-n2cc3c(n2)CN(C(=O)c2cc(S(C)(=O)=O)ccc2O[C@@H](C)C(F)(F)F)C3)c1 [Example 122, 2-(2-Fluoro-5-methylphenyl)-5-(5-methanesulfonyl-2-{[(2S)-1 1 1-trifluoropropan-2-yl]oxy}benzoyl)-2H 4H 5H 6H-pyrrolo[3,4-c]pyrazole] | < 100 nM |
| CS(=O)(=O)c1ccc(N2CCC(F)(F)CC2)c(C(=O)N2Cc3cn(-c4cc(F)ccc4F)nc3C2)c1 [Example 123, 1-{2-[2-(2 5-Difluorophenyl)-2H 4H 5H 6H-pyrrolo[3,4-c]pyrazole-5-carbonyl]-4-methanesulfonylphenyl}-4 4-difluoropiperidine] | < 100 nM |
| Cc1ccc(F)c(-n2cc3c(n2)CN(C(=O)c2cc(S(C)(=O)=O)ccc2N2CCC(F)(F)CC2)C3)c1 [Example 124, 4 4-Difluoro-1-{2-[2-(2-fluoro-5-methylphenyl)-2H 4H 5H 6H-pyrrolo[3,4-c]pyrazole-5-carbonyl]-4-methanesulfonylphenyl}piperidine] | < 100 nM |
| CCS(=O)(=O)c1ccc(O[C@@H](C)C(F)(F)F)c(C(=O)N2Cc3cn(-c4cc(F)ccc4F)nc3C2)c1 [Example 125, 2-(2 5-Difluorophenyl)-5-[5-(ethanesulfonyl)-2-{[(2S)-1 1 1-trifluoropropan-2-yl]oxy}benzoyl]-2H 4H 5H 6H-pyrrolo[3,4-c]pyrazole] | < 100 nM |
| CCS(=O)(=O)c1ccc(O[C@@H](C)C(F)(F)F)c(C(=O)N2Cc3cn(-c4cc(C)ccc4F)nc3C2)c1 [Example 126, 5-[5-(Ethanesulfonyl)-2-{[(2S)-1 1 1-trifluoropropan-2-yl]oxy}benzoyl]-2-(2-fluoro-5-methylphenyl)-2H 4H 5H 6H-pyrrolo[3,4-c]pyrazole] | < 100 nM |
| CCS(=O)(=O)c1ccc(N2CCC(F)(F)CC2)c(C(=O)N2Cc3cn(-c4cc(F)ccc4F)nc3C2)c1 [Example 127, 1-{2-[2-(2 5-Difluorophenyl)-2H 4H 5H 6H-pyrrolo[3,4-c]pyrazole-5-carbonyl]-4-(ethanesulfonyl)phenyl}-4 4-difluoropiperidine] | < 100 nM |
| CCS(=O)(=O)c1ccc(N2CCC(F)(F)CC2)c(C(=O)N2Cc3cn(-c4cc(C)ccc4F)nc3C2)c1 [Example 128, 1-[4-(Ethanesulfonyl)-2-[2-(2-fluoro-5-methylphenyl)-2H 4H 5H 6H-pyrrolo[3,4-c]pyrazole-5-carbonyl]phenyl]-4 4-difluoropiperidine] | < 100 nM |
| CC(C)Oc1ccc(S(C)(=O)=O)cc1C(=O)N1Cc2cn(-c3cc(F)ccc3F)nc2C1 [Example 129, 2-(2 5-Difluorophenyl)-5-[5-methanesulfonyl-2-(propan-2-yloxy)benzoyl]-2H 4H 5H 6H-pyrrolo[3,4-c]pyrazole] | < 100 nM |
| Cc1ccc(F)c(-n2cc3c(n2)CN(C(=O)c2cc(S(C)(=O)=O)ccc2OC(C)C)C3)c1 [Example 130, 2-(2-Fluoro-5-methylphenyl)-5-[5-methanesulfonyl-2-(propan-2-yloxy)benzoyl]-2H 4H 5H 6H-pyrrolo[3,4-c]pyrazole] | < 100 nM |
| CCc1cc(-n2cc3c(n2)CN(C(=O)c2cc(S(C)(=O)=O)ccc2N2CCC(F)(F)CC2)C3)ccn1 [Example 131, 4-{5-[2-(4 4-Difluoropiperidin-1-yl)-5-methanesulfonylbenzoyl]-2H 4H 5H 6H-pyrrolo[3,4-c]pyrazol-2-yl}-2-ethylpyridine] | < 100 nM |
| CCc1cc(-n2cc3c(n2)CN(C(=O)c2cc(S(=O)(=O)CC)ccc2N2CCC(F)(F)CC2)C3)ccn1 [Example 132, 4-{5-[2-(4 4-Difluoropiperidin-1-yl)-5-(ethanesulfonyl)benzoyl]-2H 4H 5H 6H-pyrrolo[3,4-c]pyrazol-2-yl}-2-ethylpyridine] | < 100 nM |
| CCc1cc(-n2cc3c(n2)CN(C(=O)c2cc(S(C)(=O)=O)ccc2O[C@@H](C)C(F)(F)F)C3)ccn1 [Example 133, 2-Ethyl-4-[5-(5-methanesulfonyl-2-{[(2S)-1 1 1-trifluoropropan-2-yl]oxy}benzoyl)-2H 4H 5H 6H-pyrrolo[3,4-c]pyrazol-2-yl]pyridine] | < 100 nM |
